This passage reports inhibition results from ChEMBL document CHEMBL3627608, “Crystal structures of human RIP2 kinase catalytic domain complexed with ATP-competitive inhibitors: Foundations for understanding inhibitor selectivity” (Bioorg Med Chem, 2015).

Assay [1] deals with G protein-coupled receptor kinase 4 (Homo sapiens) (UniProt P32298). The assay is described as follows: Inhibition of GRK4 (unknown origin) at 10 uM after 120 mins P33 radiolabeled kinase activity assay.
In assay [2] the target is Casein kinase I isoform gamma-1 (Homo sapiens) (UniProt Q9HCP0). The assay is described as follows: Inhibition of CK1gamma1 (unknown origin) at 10 uM after 120 mins P33 radiolabeled kinase activity assay.
The species named for a further assay is Homo sapiens. The assay is described as follows: Inhibition of PKG1beta (unknown origin) at 10 uM after 120 mins P33 radiolabeled kinase activity assay.
The target in assay [3] is Serine/threonine-protein kinase PLK2 (Homo sapiens) (UniProt Q9NYY3). In words: Inhibition of PLK2 (unknown origin) at 10 uM after 120 mins P33 radiolabeled kinase activity assay.
The target of assay [4] is Receptor tyrosine-protein kinase erbB-2 (Homo sapiens) (UniProt P04626). In words: Inhibition of ERBB2 (unknown origin) at 10 uM after 120 mins P33 radiolabeled kinase activity assay.
Assay [5] deals with Bone morphogenetic protein receptor type-1A (Homo sapiens) (UniProt P36894). The assay is described as follows: Inhibition of ALK3 (unknown origin) at 10 uM after 120 mins P33 radiolabeled kinase activity assay.
In assay [6] the target is Activated CDC42 kinase 1 (Homo sapiens) (UniProt Q07912). The assay is described as follows: Inhibition of ACK1 (unknown origin) at 10 uM after 120 mins P33 radiolabeled kinase activity assay.
Assay [7] concerns the target Tyrosine-protein kinase BTK (Homo sapiens) (UniProt Q06187). The assay is described as follows: Inhibition of BTK (unknown origin) at 10 uM after 120 mins P33 radiolabeled kinase activity assay.
In assay [8] the target is T1, Dual specificity mitogen-activated protein kinase kinase 7 (Homo sapiens) (UniProt O14733).
T1 sequence (whole entry): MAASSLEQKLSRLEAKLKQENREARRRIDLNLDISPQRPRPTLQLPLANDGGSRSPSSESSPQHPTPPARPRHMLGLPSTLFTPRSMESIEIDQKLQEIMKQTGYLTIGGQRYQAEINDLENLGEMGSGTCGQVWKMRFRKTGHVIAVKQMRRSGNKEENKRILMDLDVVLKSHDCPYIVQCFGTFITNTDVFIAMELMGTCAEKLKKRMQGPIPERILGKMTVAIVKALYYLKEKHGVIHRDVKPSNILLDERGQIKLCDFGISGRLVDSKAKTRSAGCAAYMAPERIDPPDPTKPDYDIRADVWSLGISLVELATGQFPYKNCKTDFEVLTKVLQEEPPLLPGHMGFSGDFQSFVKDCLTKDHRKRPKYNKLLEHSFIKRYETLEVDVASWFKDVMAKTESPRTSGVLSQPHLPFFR
The assay is described as follows: Inhibition of MKK7 (unknown origin) at 10 uM after 120 mins P33 radiolabeled kinase activity assay.

Assay [9] concerns the target T2, Tyrosine-protein kinase TXK (Homo sapiens) (UniProt P42681).
T2 sequence (whole entry): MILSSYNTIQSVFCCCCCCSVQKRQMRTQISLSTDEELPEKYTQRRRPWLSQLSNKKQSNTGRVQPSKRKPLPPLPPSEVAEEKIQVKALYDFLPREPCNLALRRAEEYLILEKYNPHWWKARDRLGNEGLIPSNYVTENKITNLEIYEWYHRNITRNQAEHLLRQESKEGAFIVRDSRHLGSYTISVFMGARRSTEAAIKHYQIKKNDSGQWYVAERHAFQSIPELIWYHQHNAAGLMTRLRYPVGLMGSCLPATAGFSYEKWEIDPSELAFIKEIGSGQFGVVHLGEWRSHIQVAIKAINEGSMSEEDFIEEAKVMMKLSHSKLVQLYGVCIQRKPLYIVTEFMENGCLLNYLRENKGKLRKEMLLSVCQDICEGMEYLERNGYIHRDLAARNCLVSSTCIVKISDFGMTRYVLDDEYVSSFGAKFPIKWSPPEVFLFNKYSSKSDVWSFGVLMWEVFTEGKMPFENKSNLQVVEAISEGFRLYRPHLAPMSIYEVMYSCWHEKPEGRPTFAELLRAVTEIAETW
In words: Inhibition of TXK (unknown origin) at 10 uM after 120 mins P33 radiolabeled kinase activity assay.

In assay [10] the target is Mitogen-activated protein kinase kinase kinase 10 (Homo sapiens) (UniProt Q02779). In words: Inhibition of MLK2 (unknown origin) at 10 uM after 120 mins P33 radiolabeled kinase activity assay.
The target in assay [11] is NT-3 growth factor receptor (Homo sapiens) (UniProt Q16288). The assay is described as follows: Inhibition of TRKC (unknown origin) at 10 uM after 120 mins P33 radiolabeled kinase activity assay.
The target in assay [12] is T3, Ephrin type-A receptor 3 (Homo sapiens) (UniProt P29320).
T3 sequence (whole entry): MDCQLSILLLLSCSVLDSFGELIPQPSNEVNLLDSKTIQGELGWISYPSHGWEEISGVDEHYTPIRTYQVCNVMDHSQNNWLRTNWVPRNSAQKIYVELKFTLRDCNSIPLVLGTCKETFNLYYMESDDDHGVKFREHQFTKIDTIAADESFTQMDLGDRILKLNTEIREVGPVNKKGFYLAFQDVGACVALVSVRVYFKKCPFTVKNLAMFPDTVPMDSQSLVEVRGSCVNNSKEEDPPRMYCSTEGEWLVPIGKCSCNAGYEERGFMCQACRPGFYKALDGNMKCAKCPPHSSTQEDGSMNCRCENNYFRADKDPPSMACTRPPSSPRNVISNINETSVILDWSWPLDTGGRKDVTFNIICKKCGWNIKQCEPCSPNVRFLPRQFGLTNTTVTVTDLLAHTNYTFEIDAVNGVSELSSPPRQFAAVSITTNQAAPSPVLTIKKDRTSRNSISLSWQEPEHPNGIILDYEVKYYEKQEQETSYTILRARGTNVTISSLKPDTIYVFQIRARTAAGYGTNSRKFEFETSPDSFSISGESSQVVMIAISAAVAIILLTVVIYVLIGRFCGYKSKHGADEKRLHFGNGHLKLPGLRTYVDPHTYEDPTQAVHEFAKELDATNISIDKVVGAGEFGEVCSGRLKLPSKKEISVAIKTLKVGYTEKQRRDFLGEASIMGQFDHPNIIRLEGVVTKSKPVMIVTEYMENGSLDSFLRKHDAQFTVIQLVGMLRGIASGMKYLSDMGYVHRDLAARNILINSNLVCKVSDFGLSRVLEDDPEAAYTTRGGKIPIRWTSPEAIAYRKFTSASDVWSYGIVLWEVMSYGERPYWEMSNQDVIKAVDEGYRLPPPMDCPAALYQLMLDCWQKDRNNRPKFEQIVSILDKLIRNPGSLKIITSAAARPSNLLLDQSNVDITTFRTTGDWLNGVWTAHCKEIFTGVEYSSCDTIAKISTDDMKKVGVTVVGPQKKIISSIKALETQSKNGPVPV
The assay is described as follows: Inhibition of EPHA3 (unknown origin) at 10 uM after 120 mins P33 radiolabeled kinase activity assay.

The target of assay [13] is Epithelial discoidin domain-containing receptor 1 (Homo sapiens) (UniProt Q08345). In words: Inhibition of DDR1 (unknown origin) at 10 uM after 120 mins P33 radiolabeled kinase activity assay.

Mitogen-activated protein kinase kinase kinase 10 (Homo sapiens), sequence (Q02779 whole entry, looked up): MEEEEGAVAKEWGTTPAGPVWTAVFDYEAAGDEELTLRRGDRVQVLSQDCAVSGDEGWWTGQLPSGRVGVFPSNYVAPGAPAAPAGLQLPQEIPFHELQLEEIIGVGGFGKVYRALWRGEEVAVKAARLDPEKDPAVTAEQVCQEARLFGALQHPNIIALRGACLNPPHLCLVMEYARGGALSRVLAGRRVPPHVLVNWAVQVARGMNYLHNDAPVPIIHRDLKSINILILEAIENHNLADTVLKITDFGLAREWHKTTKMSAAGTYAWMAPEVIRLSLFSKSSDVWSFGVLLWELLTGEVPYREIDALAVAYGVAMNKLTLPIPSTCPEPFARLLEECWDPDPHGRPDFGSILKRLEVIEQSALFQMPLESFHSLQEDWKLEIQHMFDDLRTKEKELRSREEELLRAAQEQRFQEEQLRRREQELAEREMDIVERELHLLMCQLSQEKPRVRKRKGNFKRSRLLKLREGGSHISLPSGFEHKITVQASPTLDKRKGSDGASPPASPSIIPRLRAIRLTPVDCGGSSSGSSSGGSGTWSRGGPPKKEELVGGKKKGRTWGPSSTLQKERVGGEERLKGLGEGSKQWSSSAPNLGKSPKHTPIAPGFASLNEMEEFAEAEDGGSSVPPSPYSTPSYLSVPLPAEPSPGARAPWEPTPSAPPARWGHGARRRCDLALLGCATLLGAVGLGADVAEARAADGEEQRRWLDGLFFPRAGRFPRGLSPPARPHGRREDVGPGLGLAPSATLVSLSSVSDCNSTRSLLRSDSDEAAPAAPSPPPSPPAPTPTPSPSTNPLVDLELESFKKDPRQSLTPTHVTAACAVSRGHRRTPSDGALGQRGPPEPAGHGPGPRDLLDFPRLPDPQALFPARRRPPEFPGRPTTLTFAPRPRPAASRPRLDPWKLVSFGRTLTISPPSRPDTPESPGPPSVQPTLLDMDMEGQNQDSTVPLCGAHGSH
Tyrosine-protein kinase BTK (Homo sapiens), sequence (Q06187 whole entry): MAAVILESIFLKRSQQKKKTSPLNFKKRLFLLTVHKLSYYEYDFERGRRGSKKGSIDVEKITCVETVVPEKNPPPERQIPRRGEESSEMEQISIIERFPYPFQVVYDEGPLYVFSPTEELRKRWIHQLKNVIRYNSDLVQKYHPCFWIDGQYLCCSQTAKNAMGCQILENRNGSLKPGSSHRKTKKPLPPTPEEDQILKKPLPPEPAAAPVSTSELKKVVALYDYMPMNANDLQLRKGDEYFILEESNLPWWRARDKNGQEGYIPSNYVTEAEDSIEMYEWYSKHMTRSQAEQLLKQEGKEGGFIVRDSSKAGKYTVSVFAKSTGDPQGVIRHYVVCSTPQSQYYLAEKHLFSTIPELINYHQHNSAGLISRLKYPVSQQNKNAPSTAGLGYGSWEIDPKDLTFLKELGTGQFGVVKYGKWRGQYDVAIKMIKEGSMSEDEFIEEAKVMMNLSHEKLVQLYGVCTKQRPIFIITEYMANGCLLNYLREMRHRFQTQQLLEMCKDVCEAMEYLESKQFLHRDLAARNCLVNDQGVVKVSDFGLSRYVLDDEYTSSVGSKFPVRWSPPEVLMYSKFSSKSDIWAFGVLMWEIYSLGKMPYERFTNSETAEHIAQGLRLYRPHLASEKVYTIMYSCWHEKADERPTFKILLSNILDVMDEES
Serine/threonine-protein kinase PLK2 (Homo sapiens), sequence (Q9NYY3 whole entry, looked up): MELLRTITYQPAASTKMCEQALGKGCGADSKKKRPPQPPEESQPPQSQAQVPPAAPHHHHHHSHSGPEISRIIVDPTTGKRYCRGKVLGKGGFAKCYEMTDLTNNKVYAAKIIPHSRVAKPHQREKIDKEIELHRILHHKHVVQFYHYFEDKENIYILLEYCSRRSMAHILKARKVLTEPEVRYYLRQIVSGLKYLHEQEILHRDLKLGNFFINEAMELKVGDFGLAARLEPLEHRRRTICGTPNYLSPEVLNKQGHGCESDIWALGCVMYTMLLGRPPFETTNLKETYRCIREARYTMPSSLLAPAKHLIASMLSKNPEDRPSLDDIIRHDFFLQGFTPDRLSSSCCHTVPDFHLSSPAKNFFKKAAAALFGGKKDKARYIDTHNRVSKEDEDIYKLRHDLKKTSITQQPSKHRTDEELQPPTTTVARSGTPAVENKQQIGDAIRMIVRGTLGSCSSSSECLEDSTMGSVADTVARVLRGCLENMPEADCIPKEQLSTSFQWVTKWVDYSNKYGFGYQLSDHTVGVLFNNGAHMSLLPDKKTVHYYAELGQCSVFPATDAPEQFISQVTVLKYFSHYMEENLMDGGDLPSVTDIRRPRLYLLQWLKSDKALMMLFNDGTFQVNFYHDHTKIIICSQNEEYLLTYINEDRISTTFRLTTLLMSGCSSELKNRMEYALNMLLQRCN
NT-3 growth factor receptor (Homo sapiens), sequence (Q16288 32-839 limits assumed): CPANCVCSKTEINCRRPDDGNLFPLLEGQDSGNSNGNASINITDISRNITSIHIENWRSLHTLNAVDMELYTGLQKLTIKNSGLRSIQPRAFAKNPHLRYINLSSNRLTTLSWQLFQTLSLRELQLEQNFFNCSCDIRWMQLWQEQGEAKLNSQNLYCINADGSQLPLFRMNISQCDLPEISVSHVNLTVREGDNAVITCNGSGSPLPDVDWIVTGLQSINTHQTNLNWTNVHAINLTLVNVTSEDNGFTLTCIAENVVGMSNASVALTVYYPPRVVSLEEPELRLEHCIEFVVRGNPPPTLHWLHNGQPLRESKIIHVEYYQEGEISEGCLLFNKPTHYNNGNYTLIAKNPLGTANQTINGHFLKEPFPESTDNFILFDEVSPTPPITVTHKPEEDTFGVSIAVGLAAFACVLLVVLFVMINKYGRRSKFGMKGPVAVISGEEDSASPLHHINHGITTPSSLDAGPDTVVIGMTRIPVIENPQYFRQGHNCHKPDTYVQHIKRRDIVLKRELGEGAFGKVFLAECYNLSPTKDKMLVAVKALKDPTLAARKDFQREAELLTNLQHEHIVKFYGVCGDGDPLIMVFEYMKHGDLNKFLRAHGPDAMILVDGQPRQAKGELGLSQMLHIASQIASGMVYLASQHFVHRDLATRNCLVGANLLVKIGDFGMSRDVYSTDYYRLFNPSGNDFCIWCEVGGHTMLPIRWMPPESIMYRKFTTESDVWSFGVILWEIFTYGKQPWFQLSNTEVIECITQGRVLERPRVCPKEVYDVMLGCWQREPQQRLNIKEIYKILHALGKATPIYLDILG
Receptor tyrosine-protein kinase erbB-2 (Homo sapiens), sequence (P04626 whole entry): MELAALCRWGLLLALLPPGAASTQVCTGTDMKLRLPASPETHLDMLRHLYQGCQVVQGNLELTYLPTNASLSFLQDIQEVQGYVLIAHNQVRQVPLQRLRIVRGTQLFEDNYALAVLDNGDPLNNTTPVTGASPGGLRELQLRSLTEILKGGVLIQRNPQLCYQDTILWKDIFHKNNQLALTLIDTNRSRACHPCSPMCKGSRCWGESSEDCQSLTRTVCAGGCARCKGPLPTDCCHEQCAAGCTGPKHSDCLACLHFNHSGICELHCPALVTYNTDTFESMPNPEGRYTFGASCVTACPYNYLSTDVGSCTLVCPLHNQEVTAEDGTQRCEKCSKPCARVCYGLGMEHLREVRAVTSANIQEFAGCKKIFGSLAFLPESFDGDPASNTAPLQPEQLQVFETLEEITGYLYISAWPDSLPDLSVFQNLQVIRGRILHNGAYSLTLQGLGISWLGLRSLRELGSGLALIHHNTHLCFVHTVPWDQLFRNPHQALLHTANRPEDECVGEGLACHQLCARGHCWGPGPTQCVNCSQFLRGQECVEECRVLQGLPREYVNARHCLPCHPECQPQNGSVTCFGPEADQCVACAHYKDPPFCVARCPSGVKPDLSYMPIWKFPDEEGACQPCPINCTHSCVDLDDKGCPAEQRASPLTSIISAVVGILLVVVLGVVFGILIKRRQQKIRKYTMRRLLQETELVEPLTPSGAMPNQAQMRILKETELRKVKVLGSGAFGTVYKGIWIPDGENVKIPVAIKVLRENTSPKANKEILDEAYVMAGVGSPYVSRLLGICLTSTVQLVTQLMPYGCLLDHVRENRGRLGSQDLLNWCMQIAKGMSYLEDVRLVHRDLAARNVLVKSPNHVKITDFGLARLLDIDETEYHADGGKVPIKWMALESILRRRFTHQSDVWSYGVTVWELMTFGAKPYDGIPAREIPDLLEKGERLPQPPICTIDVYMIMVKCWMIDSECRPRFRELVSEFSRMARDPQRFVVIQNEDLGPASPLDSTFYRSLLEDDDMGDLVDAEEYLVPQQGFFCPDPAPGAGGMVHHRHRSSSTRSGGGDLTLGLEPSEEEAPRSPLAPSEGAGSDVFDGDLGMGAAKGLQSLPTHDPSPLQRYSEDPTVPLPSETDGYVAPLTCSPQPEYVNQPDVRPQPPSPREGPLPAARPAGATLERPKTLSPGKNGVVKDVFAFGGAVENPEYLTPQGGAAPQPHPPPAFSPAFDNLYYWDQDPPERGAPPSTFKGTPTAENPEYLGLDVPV
Bone morphogenetic protein receptor type-1A (Homo sapiens), sequence (P36894 whole entry): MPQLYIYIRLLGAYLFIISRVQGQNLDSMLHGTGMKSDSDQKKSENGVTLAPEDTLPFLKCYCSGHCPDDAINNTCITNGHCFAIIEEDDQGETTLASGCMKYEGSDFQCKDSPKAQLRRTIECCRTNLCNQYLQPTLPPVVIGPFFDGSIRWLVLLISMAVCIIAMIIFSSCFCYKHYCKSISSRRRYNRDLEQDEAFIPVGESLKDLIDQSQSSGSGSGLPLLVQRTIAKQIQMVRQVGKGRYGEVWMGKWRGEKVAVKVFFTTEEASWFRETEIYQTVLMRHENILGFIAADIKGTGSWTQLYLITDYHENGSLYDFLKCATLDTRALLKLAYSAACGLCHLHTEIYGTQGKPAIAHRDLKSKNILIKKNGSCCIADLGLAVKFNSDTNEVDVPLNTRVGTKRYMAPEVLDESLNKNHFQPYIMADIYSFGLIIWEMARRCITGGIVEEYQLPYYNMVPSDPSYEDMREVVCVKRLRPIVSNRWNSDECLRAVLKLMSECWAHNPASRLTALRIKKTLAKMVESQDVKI

For orientation: inhibition means the drop in the measured response relative to a control, in per cent. For the compound `CS(=O)(=O)c1cccc(Nc2nccc(-c3sc(N4CCOCC4)nc3-c3cccc(NS(=O)(=O)c4c(F)cccc4F)c3)n2)c1`, the inhibition in assay [1] was -2.43%; in [2], 35.1%; in the assay filed under Homo sapiens, 2.75%; in assay [3], 7.04%; in assay [4] it was 95.3%; in assay [5], 75.5%. Besides, the inhibition worked out at 96.5% in assay [6]; 96% in assay [7]; 7.17% in [8]; 97.5% in assay [9]; 102% in [10]; 84.8% in assay [11]. Besides, the inhibition in [12] was found to be 57.4%; in [13] it was 98.6%.

Consider `CC(C)(C)c1cc(NC(=O)Nc2ccc(Oc3ccncc3)cc2)no1`, for which the inhibition in [1] is -0.89%; in [2] it was 6.78%; in the assay filed under Homo sapiens it was 15.2%; in assay [3], 2.47%; in assay [4] it was -7.24%; in [5], -6.2%. Also, the inhibition in [6] was found to be 21.6%; in [7], 20.3%; in assay [8], 22.7%; in assay [9], 24.8%; in assay [10] it was 39.5%; in [11], 99.7%. The inhibition in assay [12] was 91.5%; in [13] it was 98.1%.

`COCCNC(=O)c1ccc2c(c1)nc(-c1cnc(-c3ccc(Cl)cc3)[nH]1)n2CCOC`: the inhibition in assay [1] is -0.94%; in assay [2] it was 7.23%; in the assay filed under Homo sapiens, -4.49%; in assay [3] it was 1.52%; in assay [4], 2.53%; in assay [5], -9.9%. Moreover, the inhibition in [6] was 16.4%; in assay [7], 19.4%; in [8] it was 2%; in [9], 27.8%; in assay [10], 8.79%; in assay [11] it was 11.8%. Also, the inhibition is 17.5% in [12] and 66% in assay [13].
